Results from patent publication US12421230B2, “Tricyclic heteroaryl compounds useful as IRAK4 inhibitors” (BRISTOL-MYERS SQUIBB COMPANY, priority 2020, dated 2025).
Counter-ions that a name gives are not always drawn.

Molecular target: T1, IRAK4 (Homo sapiens, UniProt Q9NWZ3)
T1 sequence (Q9NWZ3 1-460): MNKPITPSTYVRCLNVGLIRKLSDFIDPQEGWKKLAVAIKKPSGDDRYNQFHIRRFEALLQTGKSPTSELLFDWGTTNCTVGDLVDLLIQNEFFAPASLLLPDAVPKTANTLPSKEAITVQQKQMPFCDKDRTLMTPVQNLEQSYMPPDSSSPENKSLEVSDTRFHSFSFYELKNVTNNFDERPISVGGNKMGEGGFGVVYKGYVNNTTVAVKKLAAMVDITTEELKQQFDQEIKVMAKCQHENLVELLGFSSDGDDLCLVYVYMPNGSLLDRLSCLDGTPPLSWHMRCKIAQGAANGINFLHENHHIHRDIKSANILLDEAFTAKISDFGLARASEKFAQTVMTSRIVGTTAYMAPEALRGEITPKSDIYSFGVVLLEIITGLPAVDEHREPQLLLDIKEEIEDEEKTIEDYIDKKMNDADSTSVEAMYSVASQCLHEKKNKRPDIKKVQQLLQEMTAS
Test: IRAK4 Inhibition Assay
Format: biochemical
Conditions: ATP 500 μM; fluoresceinated peptide 1.5 μM; IRAK4 0.6 nM; 60 min room temperature; Caliper LABCHIP
Procedure: The assays were performed in U-bottom 384-well plates. The final assay volume was 30 μL prepared from 15 μL additions of enzyme and substrates (fluoresceinated peptide and ATP) and test compounds in assay buffer (20 mM HEPES pH 7.2, 10 mM MgCl2, 0.015% Brij 35 and 4 mM DTT). The reaction was initiated by the combination of IRAK4 with substrates and test compounds. The reaction mixture was incubated at room temperature for 60 min. and terminated by adding 45 μL of 35 mM EDTA to each sample. The reaction mixture was analyzed on the Caliper LABCHIP® 3000 (Caliper, Hopkinton, MA) by electrophoretic separation of the fluorescent substrate and phosphorylated product. Inhibition data were calculated by comparison to no enzyme control reactions for 100% inhibition and vehicle-only reactions for 0% inhibition. The final concentrations of reagents in the assays are ATP, 500 μM; FL-IPTSPITTTYFFFKKK peptide 1.5 μM; IRAK4, 0.6 nM; and DMSO, 1.6%.

SMILES	IC50
CC(C)Nc1c(C(=O)N[C@H]2C[C@H](N)C2)cnc2c1[nH]c1cc(C#N)ccc12 [Example 47, N-((1R,3R)-3-aminocyclobutyl)-7-cyano (isopropylamino)-5H-pyrido[3,2-b]indole-3-carboxamide]	40 nM
CC(C)Nc1c(C(=O)NC[C@@H](F)C(C)(C)O)cnc2c1[nH]c1cc(-c3ccc(=O)[nH]c3)ccc12 [Example 68, (R)—N-(2-fluoro-3-hydroxymethylbutyl)-4-(isopropylamino)-7-(6-oxo-1,6-dihydropyridin-3-yl)-5H-pyrido[3,2-b]indole-3-carboxamide]	580 nM
CC(C)Cc1nc(-c2cnc3c([nH]c4cc(C#N)ccc43)c2NC(C)C)n[nH]1 [Example 70, 3-(5-isobutyl-1H-1,2,4-triazol-3-yl)-4-(isopropylamino)-5H-pyrido[3,2-b]indole-7-carbonitrile, TFA]	1700 nM
CC(C)Nc1c(C(=O)NCCC(C)(C)O)cnc2c1[nH]c1cc(C(N)=O)ccc12 [Example 48, N3-(3-hydroxy-3-methylbutyl)-4-(isopropylamino)-5H-pyrido[3,2-b]indole-3,7-dicarboxamide]	240 nM
CC(C)Nc1c(C(=O)NC[C@@H](F)C(C)(C)O)cnc2c1[nH]c1cc(C#N)cnc12 [Example 69, (R)-7-cyano-N-(2-fluoro-3-hydroxy-3-methylbutyl)-4-(isopropylamino)-5H-pyrrolo [3,2-b:4,5-b′]dipyridine-3-carboxamide]	540 nM
CC(=O)N[C@H]1C[C@H](NC(=O)c2cnc3c([nH]c4cc(C#N)ccc43)c2NC(C)C)C1 [Example 49, N-((1R,3R)-3-acetamidocyclobutyl)-7-cyano-4-(isopropylamino)-5H-pyrido[3,2-b]indole-3-carboxamide]	22 nM
CCCc1noc(-c2cnc3c([nH]c4cc(C#N)ccc43)c2NC(C)C)n1 [Example 72, 4-(isopropylamino)-3-(3-propyl-1,2,4-oxadiazol-5-yl)-5H-pyrido[3,2-b]indole-7-carbonitrile]	360 nM
CC(C)Nc1c(C(=O)NC(CCO)C2CC2)cnc2c1[nH]c1cc(C#N)ccc12 (centres unmarked) [Example 16, 7-cyano-N-(1-cyclopropyl-3-hydroxypropyl)-4-(isopropylamino)-5H-pyrido[3,2-b]indole-3-carboxamide]	310 nM
CC(C)Nc1c(-c2cc(C3CCCNC3)no2)cnc2c1[nH]c1cc(C#N)ccc12 (centres unmarked) [Example 79, 4-(isopropylamino)-3-(3-(piperidin-3-yl)isoxazol-5-yl)-5H-pyrido[3,2-b]indole-7-carbonitrile]	22 nM
CC(C)Nc1c(C(=O)NCCC2CC2)cnc2[nH]c3ccc(C#N)cc3c12 [Example 82, 6-cyano-N-(2-cyclopropylethyl)-4-(isopropylamino)-9H-pyrido[2,3-b]indole-3-carboxamide]	650 nM
CC(C)Nc1c(C(=O)NCCc2nnn[nH]2)cnc2c1[nH]c1cc(C#N)ccc12 [Example 65, N-(2-(1H-tetrazol-5-yl)ethyl)-7-cyano-4-(isopropylamino)-5H-pyrido[3,2-b]indole-3-carboxamide]	100 nM
CC(C)Nc1c(C(=O)NC[C@@H](F)C(C)(C)O)cnc2[nH]c3ccc(C#N)cc3c12 [Example 81, (R)-6-cyano-N-(2-fluoro-3-hydroxy-3-methylbutyl)-4-(isopropylamino)-9H-pyrido [2,3-b]indole-3-carboxamide]	170 nM
CC(C)CCn1cc(-c2cnc3c([nH]c4cc(C#N)ccc43)c2NC(C)C)nn1 [Example 73, 3-(1-isopentyl-1H-1,2,3-triazol-4-yl)-4-(isopropylamino)-5H-pyrido[3,2-b]indole-7-carbonitrile]	1.5 nM
CC(C)Nc1c(C(=O)NC2CCNCC2)cnc2c1[nH]c1cc(C#N)ccc12 [Example 19, 7-cyano (isopropylamino)-N-(piperidin-4-yl)-5H-pyrido[3,2-b]indole-3-carboxamide]	20 nM

The next lines start with the values.

IC50	SMILES
33 nM	N#Cc1ccc2c(c1)[nH]c1c(NC3CC3)c(C(=O)N[C@H]3C[C@H](O)C3)cnc12 [Example 45, 7-cyano (cyclopropylamino)-N-((1R,3R)-3-hydroxycyclobutyl)-5H-pyrido[3,2-b]indole carboxamide]
48 nM	CC(C)(O)CCNC(=O)c1cnc2c([nH]c3cc(C#N)ccc32)c1N[C@H]1CCOC1 [Example 28, (S)-7-cyano-N-(3-hydroxy-3-methylbutyl)-4-((tetrahydrofuran-3-yl)amino)-5H-pyrido[3,2-b]indole-3-carboxamide]
2.8 nM	CCNc1c(C(=O)NCCC2CCCNC2)cnc2c1[nH]c1cc(C#N)ccc12 (centres unmarked) [Example 55, 7-cyano-4-(ethylamino)-N-(2-(piperidin-3-yl)ethyl)-5H-pyrido[3,2-b]indole-3-carboxamide]
37 nM	CC(C)Nc1c(C(=O)NC2CCCOC2)cnc2c1[nH]c1cc(C#N)ccc12 (centres unmarked) [Example 6, 7-cyano-4-(isopropylamino)-N-(tetrahydro-2H-pyran-3-yl)-5H-pyrido[3,2-b]indole-3-carboxamide]
170 nM	CC(C)Nc1c(C(=O)NCC2(CO)COC2)cnc2c1[nH]c1cc(C#N)ccc12 [Example 7, 7-cyano-N-((3-(hydroxymethyl)oxetan-3-yl)methyl)-4-(isopropylamino)-5H-pyrido[3,2-b]indole-3-carboxamide]
330 nM	CC(C)Nc1c(C(=O)NCC2(CO)CC2)cnc2c1[nH]c1cc(C#N)ccc12 [Example 8, 7-cyano-N-((1-(hydroxymethyl)cyclopropyl)methyl)-4-(isopropylamino)-5H-pyrido[3,2-b]indole-3-carboxamide]
33 nM	CC(C)(O)CCNC(=O)c1cnc2c([nH]c3cc(C#N)ccc32)c1N[C@@H]1CCOC1 [Example 26, (R)-7-cyano-N-(3-hydroxy-3-methylbutyl)-4-((tetrahydrofuran-3-yl)amino)-5H-pyrido[3,2-b] indole-3-carboxamide]
510 nM	COc1ccc(CNc2c(C(=O)NCCC(C)(C)O)cnc3c2[nH]c2cc(C#N)ccc23)cc1OC [Example 56, 7-cyano-4-((3,4-dimethoxybenzyl)amino)-N-(3-hydroxy-3-methylbutyl)-5H-pyrido[3,2-b]indole-3-carboxamide]
9.2 nM	CC(C)(O)CCNC(=O)c1cnc2c([nH]c3cc(C#N)ccc32)c1NC1COC1 [Example 41, 7-cyano-N-(3-hydroxy-3-methylbutyl) (oxetan-3-ylamino)-5H-pyrido[3,2-b]indole-3-carboxamide]
30.8 nM	CC(C)(O)CCNC(=O)c1cnc2c([nH]c3cc(C#N)ccc32)c1NCC1CC1 [Example 33, 7-cyano-4-((cyclopropylmethyl)amino)-N-(3-hydroxy-3-methylbutyl)-5H-pyrido[3,2-b] indole-3-carboxamide]
11 nM	C[C@H](Nc1c(C(=O)NCCC(C)(C)O)cnc2c1[nH]c1cc(C#N)ccc12)C1CC1 [Example 29, (S)-7-cyano-4-((1-cyclopropylethyl)amino)-N-(3-hydroxy-3-methylbutyl)-5H-pyrido[3,2-b]indole-3-carboxamide]
24 nM	N#Cc1ccc2c(c1)[nH]c1c(NC3COC3)c(C(=O)NCCC(F)(F)F)cnc12 [Example 42, 7-cyano-4-(oxetanylamino)-N-(3,3,3-trifluoropropyl)-5H-pyrido[3,2-b]indole-3-carboxamide]
